33 molecules from ChEMBL document CHEMBL2029336, “S-Adenosylhomocysteine hydrolase of the protozoan parasite Trichomonas vaginalis: potent inhibitory activity of 9-(2-deoxy-2-fluoro-β,D-arabinofuranosyl)adenine” (Bioorg Med Chem Lett, 2012) can be followed below.

Calls of active or inactive are those of the source. No cut-off for these calls is given here.

The test system of data set [1] is Trichomonas vaginalis. The data set can be described thus: Growth inhibition of Trichomonas vaginalis T1 at 100 uM after 24 hrs by hemocytometry. Type of data set: functional. To be noted: for inhibition of growth at 100 µM: T1, 24 h, read-out: GI.
Data set [2] has as its system Trichomonas vaginalis. The experiment in a line: Growth inhibition of Trichomonas vaginalis T1 after 24 hrs by hemocytometry. Type of data set: functional, organism-based. Particulars: T1, 24 h.
Data set [3] concerns Trichomonas vaginalis. The experiment in a line: Growth inhibition of mtronidazole-resistant Trichomonas vaginalis after 24 hrs by hemocytometry. Type of data set: functional, organism-based.
For data set [4], the system named is CHO-K1. The data set can be described thus: Cytotoxicity against CHOK1 cells assessed as morphological changes at 100 uM after 48 hrs by microscopy. The class given is cell-based, Cricetulus griseus. To be noted: chinese hamster, cho-k1, 48 h.

With `Nc1ncnc2c1ncn2[C@@H]1O[C@H](CO)[C@@H](O)[C@H]1O` [ADENOSINE], the inhibition of growth at 100 µM in data set [1] was found to be 49.7%.

For `Nc1ncnc2c1ncn2[C@@H]1O[C@H](CO)[C@@H](O)[C@@H]1Cl`, the IC50 in data set [2] stood at 5.93 µM. Moreover, in data set [1], the inhibition of growth at 100 µM was 100%.

For the molecule `O=c1ccn([C@@H]2O[C@H](C=C(Br)Br)[C@@H](O)[C@H]2O)c(=O)[nH]1`, the inhibition of growth at 100 µM in data set [1] was 12.2%.

For the molecule `CC(=O)O[C@H]1[C@@H](O)[C@H](n2ccc(=O)[nH]c2=O)O[C@@H]1CO`, the inhibition of growth at 100 µM in data set [1] stood at 22.8%.

In the case of `Nc1ncnc2c1ncn2[C@@H]1O[C@H](CO)[C@@H](O)[C@H]1F` [2'-BETA-FLUORO-2',3'-DEOXYADENOSINE], the IC50 in data set [2] is 2.94 µM. In addition, the inhibition of growth at 100 µM in data set [1] is 100%.

In data set [2], `Nc1ncnc2c1ncn2[C@@H]1O[C@H](CO)[C@@H](F)[C@H]1O` yielded an IC50 of 1.61 µM. Moreover, the inhibition of growth at 100 µM in data set [1] turned out to be 100%.

Take `Nc1ncnc2c1ncn2[C@@H]1O[C@H](CSc2ccc(Cl)cc2)[C@@H](O)[C@H]1O`: the inhibition of growth at 100 µM in data set [1] is 51.2%.

For the molecule `Nc1ncnc2c1ncn2[C@@H]1O[C@H](CO)C[C@H]1O` [CORDYCEPIN], the inhibition of growth at 100 µM in data set [1] is 94.1%.

As for `Nc1ncnc2c1ncn2[C@@H]1O[C@H](CCl)[C@@H](O)[C@H]1O`, 53.3 µM corresponded to half-maximal inhibition in data set [2] (IC50). Further, the inhibition of growth at 100 µM in data set [1] amounted to 88.9%.

On to `CCCSS[C@H]1[C@H](O)[C@@H](CO)O[C@H]1n1cnc2c(N)nc(N)nc21`, for which the inhibition of growth at 100 µM in data set [1] came out at 6.2%.

`NC[C@H]1O[C@@H](n2cnc3c(NC(=O)c4ccccc4)ncnc32)[C@H](O)[C@@H]1O`: in data set [1], the inhibition of growth at 100 µM is 21.7%.

Take `O=c1[nH]cnc2c1ncn2[C@@H]1O[C@H](CO)[C@@H](O)[C@H]1O` [INOSINE]: in data set [1], the inhibition of growth at 100 µM stood at 19.2%.

In data set [3], `Cc1ncc([N+](=O)[O-])n1CCO` [METRONIDAZOLE] showed a 50% inhibitory concentration (IC50) of 0.21 µM.

With `COc1ccc(SC[C@H]2O[C@@H](n3cnc4c(N)ncnc43)[C@H](O)[C@@H]2O)cc1`, the inhibition of growth at 100 µM in data set [1] was 58%.

With `N[C@@H]1[C@H](O)[C@@H](CO)O[C@H]1n1ccc(=O)[nH]c1=O`, the inhibition of growth at 100 µM in data set [1] came to 18.4%.

Regarding `CCCSS[C@H]1[C@H](O)[C@@H](CO)O[C@H]1n1cnc2c(N)ncnc21`, the inhibition of growth at 100 µM in data set [1] was 66.8%.

For the molecule `O=c1ccn([C@@H]2O[C@H](CSc3ccccc3)[C@@H](O)[C@H]2O)c(=O)[nH]1`, the “growth inhibition (GI)” value in data set [1] is “inactive”.

Turning to `COc1ccc(SC[C@H]2O[C@@H](n3ccc(=O)[nH]c3=O)[C@H](O)[C@@H]2O)cc1`, the “growth inhibition (GI)” value in data set [1] was “inactive”.

For the molecule `Nc1ncnc2c1ncn2[C@@H]1O[C@H](CO)[C@@H](O)[C@@H]1F`, the IC50 in data set [2] came to 0.09 µM; in data set [3], 100 µM. The inhibition of growth at 100 µM in data set [1] amounted to 99.6%. Moreover, the Activity result in data set [4] is listed as “Non-toxic”.

Turning to `Nc1ncnc2c1ncn2[C@@H]1O[C@H](COC(=O)c2ccccc2)[C@@H](O)[C@H]1O`, the inhibition of growth at 100 µM in data set [1] amounted to 13.5%.

In the case of `O=c1ccn([C@H]2C[C@H](O)[C@@H](CI)O2)c(=O)[nH]1`, the inhibition of growth at 100 µM in data set [1] amounted to 21.2%.

As to `CC(C)CSC[C@H]1O[C@@H](n2cnc3c(N)ncnc32)[C@H](O)[C@@H]1O`, in data set [1], the inhibition of growth at 100 µM came to 44.9%.

On to `CCCSS[C@@H]1[C@H](O)[C@@H](CO)O[C@H]1n1cnc2c(N)ncnc21`, for which, in data set [1], the inhibition of growth at 100 µM worked out at 43%.

Take `Nc1nc(N)c2ncn([C@@H]3O[C@H](CO)[C@@H](O)[C@H]3O)c2n1`: the IC50 in data set [2] turned out to be 29.5 µM. For the same molecule, the inhibition of growth at 100 µM in data set [1] came out at 100%.

In data set [2], `[N-]=[N+]=NC[C@H]1O[C@@H](n2cnc3c(N)ncnc32)[C@H](O)[C@@H]1O` yielded an IC50 of 48.5 µM. Besides, the inhibition of growth at 100 µM in data set [1] stood at 85.2%.

In the case of `O=C(Nc1ncnc2c1ncn2[C@@H]1O[C@H](CCl)[C@@H](O)[C@H]1O)c1ccccc1`, in data set [1], the inhibition of growth at 100 µM worked out at 40.7%.

For the molecule `NC[C@H]1O[C@@H](n2cnc3c(N)ncnc32)[C@H](O)[C@@H]1O`, the inhibition of growth at 100 µM in data set [1] was found to be 24.1%.

For `Nc1ncnc2c1ncn2[C@@H]1O[C@H](CO)[C@H]2O[C@H]21`, the inhibition of growth at 100 µM in data set [1] is 43%.

As for `O=c1ccn([C@@H]2O[C@H](CCl)[C@@H](O)[C@H]2O)c(=O)[nH]1`, the “growth inhibition (GI)” value in data set [1] is “inactive”.

For the molecule `Nc1c2ncn([C@@H]3O[C@H](CO)[C@@H](O)[C@H]3O)c2nc[n+]1[O-]`, in data set [1], the inhibition of growth at 100 µM worked out at 37.7%.

For the molecule `Nc1ncnc2c1ncn2[C@H]1C[C@H](O)[C@@H](CO)O1` [DEOXYADENOSINE], the inhibition of growth at 100 µM in data set [1] is 48.7%.

In turn, `Nc1ncnc2c1ncn2[C@@H]1O[C@H](CO)[C@@H](O)[C@@H]1O` [VIDARABINE] showed an IC50 in data set [2] of 3.6 µM. The inhibition of growth at 100 µM in data set [1] came out at 100%.

`Nc1ncnc2c1ncn2[C@@H]1O[C@H](CO)[C@H](F)[C@H]1O`: the inhibition of growth at 100 µM in data set [1] is 57.5%.

A word on the IC50: it is the point on the concentration scale where inhibition reaches its midpoint.
